Laboratory results reported in PubChem BioAssay AID248 (DTP/NCI, 2004).
Values joined by “and” are separate entries in the source; they are usually repeats but may differ in a detail not shown here. Equal entries are not always repeated. Inconclusive results and toxic doses are left out. Rule as the data show it: active = T/C of 150% or more; inactive = T/C below 125%.

Tested on: L1210 leukemia ip in BDF1 mice, survival T/C
Assay: NCI In Vivo Anticancer Drug Screen. Data for tumor model L1210 Leukemia (intraperitoneal) in B6D2F1 (BDF1) mice
Conditions: endpoint: mean survival time, higher = longer survival
Procedure, shortened: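 Tumor cells were implanted, animals were treated, and survival was followed. The result divides the treated measurement by the vehicle-control measurement.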

[1] = dose: 100.0 mg/kg/injection, schedule: Q01DX001 (ip), vehicle: carboxymethylcellulose (CMC)
[2] = dose: 100.0 mg/kg/injection, schedule: Q04DX003 (ip), vehicle: saline with Tween-80
[3] = dose: 200.0 mg/kg/injection, schedule: Q01DX001 (ip), vehicle: carboxymethylcellulose (CMC)
[4] = dose: 200.0 mg/kg/injection, schedule: Q04DX003 (ip), vehicle: saline with Tween-80
[5] = dose: 400.0 mg/kg/injection, schedule: Q01DX001 (ip), vehicle: carboxymethylcellulose (CMC)
[6] = dose: 400.0 mg/kg/injection, schedule: Q04DX003 (ip), vehicle: saline with Tween-80
[7] = dose: 100.0 mg/kg/injection, schedule: Q01DX001 (ip), vehicle: Klucel (hydroxypropylcellulose) (HPC)
[8] = dose: 200.0 mg/kg/injection, schedule: Q01DX001 (ip), vehicle: Klucel (hydroxypropylcellulose) (HPC)
[9] = dose: 400.0 mg/kg/injection, schedule: Q01DX001 (ip), vehicle: Klucel (hydroxypropylcellulose) (HPC)
[10] = dose: 100.0 mg/kg/injection, schedule: Q01DX009 (ip), vehicle: saline
[11] = dose: 200.0 mg/kg/injection, schedule: Q01DX009 (ip), vehicle: saline
[12] = dose: 400.0 mg/kg/injection, schedule: Q01DX009 (ip), vehicle: saline
[13] = dose: 100.0 mg/kg/injection, schedule: Q01DX009 (ip), vehicle: Klucel (hydroxypropylcellulose) (HPC)
[14] = dose: 200.0 mg/kg/injection, schedule: Q01DX009 (ip), vehicle: Klucel (hydroxypropylcellulose) (HPC)
[15] = dose: 400.0 mg/kg/injection, schedule: Q01DX009 (ip), vehicle: Klucel (hydroxypropylcellulose) (HPC)
[16] = dose: 100.0 mg/kg/injection, schedule: Q04DX002 (ip), vehicle: Klucel (hydroxypropylcellulose) (HPC)
[17] = dose: 200.0 mg/kg/injection, schedule: Q04DX002 (ip), vehicle: Klucel (hydroxypropylcellulose) (HPC)
[18] = dose: 400.0 mg/kg/injection, schedule: Q04DX002 (ip), vehicle: Klucel (hydroxypropylcellulose) (HPC)
[19] = dose: 100.0 mg/kg/injection, schedule: Q01DX001 (ip), vehicle: saline
[20] = dose: 200.0 mg/kg/injection, schedule: Q01DX001 (ip), vehicle: saline
[21] = dose: 400.0 mg/kg/injection, schedule: Q01DX001 (ip), vehicle: saline
[22] = dose: 100.0 mg/kg/injection, schedule: Q04DX003 (ip), vehicle: Klucel (hydroxypropylcellulose) (HPC)
[23] = dose: 200.0 mg/kg/injection, schedule: Q04DX003 (ip), vehicle: Klucel (hydroxypropylcellulose) (HPC)
[24] = dose: 400.0 mg/kg/injection, schedule: Q04DX003 (ip), vehicle: Klucel (hydroxypropylcellulose) (HPC)

Measured: T/C

O=Cc1ccc[nH]1
inactive: dose: 100.0 mg/kg/injection, schedule: Q04DX003 (ip), vehicle: other 93 % of control | dose: 200.0 mg/kg/injection, schedule: Q04DX003 (ip), vehicle: other 96 % of control | dose: 400.0 mg/kg/injection, schedule: Q04DX003 (ip), vehicle: other 110 % of control

CC(=O)c1ccc(S(=O)(=O)c2ccccc2)cc1
inactive: dose: 50.0 mg/kg/injection, schedule: Q01DX001 (ip), vehicle: carboxymethylcellulose (CMC) 93 % of control | [1] 93 % of control | [2] 96 % of control | [3] 101 % of control | [4] 91 % of control | [5] 95 % of control | [6] 107 % of control

CC1=CC(=O)CC(c2ccc(N(C)C)cc2)C1 (centres undefined)
inactive: dose: 25.6 mg/kg/injection, schedule: Q04DX002 (ip), vehicle: saline with Tween-80 101 % of control | dose: 64.0 mg/kg/injection, schedule: Q04DX002 (ip), vehicle: saline with Tween-80 97 % of control

CCOC(=O)C(NC(=O)NS(=O)(=O)c1ccc(C)cc1)C(=O)OCC
inactive: [7] 91 % of control | [8] 92 % of control | [9] 91 % of control

C(C=C(c1ccccc1)c1ccccc1)=C(c1ccccc1)c1ccccc1
inactive: [2] 97 % of control | [4] 90 % of control | [6] 92 % of control

CNC(=N)c1ccc(NC(=N)c2ccc(NC(=O)c3ccc(C(=O)Nc4ccc(C(=N)Nc5ccc(C(=N)NC)cc5)cc4)cc3)cc2)cc1
inactive: dose: 6.25 mg/kg/injection, schedule: Q01DX Z (ip), vehicle: carboxymethylcellulose (CMC) 124 % of control | dose: 100.0 mg/kg/injection, schedule: Q01DX Z (ip), vehicle: carboxymethylcellulose (CMC) 119 % of control

COC(OC)c1[nH]c(=S)[nH]c(=O)c1Cc1cc(C)ccc1C
inactive: [10] 99 % of control | [11] 101 % of control | [12] 103 % of control

CCCCCCCCCCCCCCCC[N+]1(C)CCC[N+](C)(CCCCCCCCCCCCCCCC)CC1 (centres undefined)
inactive: dose: 100.0 mg/kg/injection, schedule: Q01DX001 (ip), vehicle: other 111 % of control and 90 % of control | dose: 100.0 mg/kg/injection, schedule: Q04DX002 (ip), vehicle: other 94 % of control and 106 % of control | dose: 200.0 mg/kg/injection, schedule: Q01DX001 (ip), vehicle: other 96 % of control and 90 % of control | dose: 200.0 mg/kg/injection, schedule: Q04DX002 (ip), vehicle: other 97 % of control and 110 % of control | dose: 400.0 mg/kg/injection, schedule: Q01DX001 (ip), vehicle: other 96 % of control and 90 % of control | dose: 400.0 mg/kg/injection, schedule: Q04DX002 (ip), vehicle: other 98 % of control and 106 % of control

COCc1c(C)c(C)cc(C)c1C
inactive: [13] 96 % of control | [14] 96 % of control | [15] 91 % of control

CCOC(=O)/C(=C\c1ccccc1)c1nc2ccccc2[nH]1
inactive: [16] 97 % of control | [17] 101 % of control | [18] 94 % of control

Nc1ccn(C2SC(CO)C(O)C2O)c(=O)n1 (centres undefined)
inactive: dose: 50.0 mg/kg/injection, schedule: Q01DX001 (ip), vehicle: saline 100 % of control | [19] 105 % of control | [20] 100 % of control | [21] 92 % of control

CN(C)c1ccc(/C=N/NC(=S)Nc2cccc3cccnc23)cc1
inactive: [19] 105 % of control | [20] 102 % of control | [21] 96 % of control

CCOC(=O)CC/C(=C/c1cccc2ccccc12)[N+](=O)[O-]
inactive: [2] 105 % of control | [4] 94 % of control

Cc1cnc(SC(C)(C)C)c(C)c1
inactive: [19] 109 % of control | [10] 100 % of control | [16] 98 % of control and 100 % of control | [2] 108 % of control | [20] 107 % of control | [11] 94 % of control and 104 % of control | [17] 100 % of control and 106 % of control | [4] 102 % of control | [21] 109 % of control | [12] 100 % of control and 107 % of control | [18] 95 % of control and 97 % of control | [6] 91 % of control

O=C(O)/C=C\C(=O)Nc1ccccc1NC(=O)/C=C/C(=O)O
inactive: [10] 96 % of control | [11] 94 % of control | [12] 91 % of control

NC(Cc1c[nH]c2ccccc12)C(=O)OCc1ccccc1 (centres undefined)
inactive: dose: 6.25 mg/kg/injection, schedule: Q01DX009 (ip), vehicle: water 101 % of control | dose: 12.5 mg/kg/injection, schedule: Q01DX009 (ip), vehicle: water 99 % of control | dose: 25.0 mg/kg/injection, schedule: Q01DX009 (ip), vehicle: water 98 % of control and 106 % of control | dose: 50.0 mg/kg/injection, schedule: Q01DX009 (ip), vehicle: water 107 % of control | dose: 100.0 mg/kg/injection, schedule: Q01DX009 (ip), vehicle: saline with Tween-80 104 % of control | dose: 100.0 mg/kg/injection, schedule: Q01DX009 (ip), vehicle: water 97 % of control and 86 % of control | dose: 200.0 mg/kg/injection, schedule: Q01DX009 (ip), vehicle: saline with Tween-80 104 % of control | dose: 400.0 mg/kg/injection, schedule: Q01DX009 (ip), vehicle: saline with Tween-80 93 % of control

CCc1ccc(N=Nc2c(F)c(F)c(N)c(F)c2F)cc1
inactive: [1] 100 % of control | [3] 95 % of control | [5] 102 % of control

CC(=O)n1cc(C=C2C(=O)CC(C)(C)CC2=O)c2ccccc21
inactive: dose: 37.5 mg/kg/injection, schedule: Q01DX009 (ip), vehicle: Klucel (hydroxypropylcellulose) (HPC) 89 % of control | dose: 75.0 mg/kg/injection, schedule: Q01DX009 (ip), vehicle: Klucel (hydroxypropylcellulose) (HPC) 95 % of control | dose: 150.0 mg/kg/injection, schedule: Q01DX009 (ip), vehicle: Klucel (hydroxypropylcellulose) (HPC) 98 % of control

CCCCCCCCCCCCCCCCOc1ccc(C(=O)OC)cc1N
inactive: [22] 102 % of control | [23] 104 % of control | [24] 96 % of control

Cc1ccc(NCN2C(=O)NC(c3ccccc3)(c3ccccc3)C2=O)cc1
inactive: [7] 93 % of control | [8] 103 % of control | [9] 92 % of control

COc1ccc(C2CCCN(C)O2)cc1 (centres undefined)
inactive: dose: 100.0 mg/kg/injection, schedule: Q01DX001 (ip), vehicle: acetone 102 % of control | dose: 200.0 mg/kg/injection, schedule: Q01DX001 (ip), vehicle: acetone 91 % of control | dose: 400.0 mg/kg/injection, schedule: Q01DX001 (ip), vehicle: acetone 98 % of control

Cc1[nH]nc(C(=O)N(C)C)c1N=NN(C)C
inactive: dose: 75.0 mg/kg/injection, schedule: Q01DX001 (ip), vehicle: saline 116 % of control

CCCCCCCCCCCCCCCCCCOc1ccccn1
inactive: [13] 97 % of control | [22] 98 % of control | [14] 96 % of control | [23] 93 % of control | [15] 91 % of control | [24] 92 % of control
